In US20220127232A1, “HISTONE ACETYLTRANSFERASE MODULATORS AND COMPOSITIONS AND USES THEREOF” (The Trustees of Columbia University in the City of New York, priority 2019, published 2022):
Entries after “also recorded” stand apart in the source; their conditions may differ.

Test system: hippocampal slices from WT mice
Experiment: Long-term potentiation (LTP) in hippocampal slices perfused with oTau or oAβ
Type: cell-based
Text: Synaptic dysfunction is a major hallmark of AD (Histol Histopathol, 1995. 10(2): p. 509-19; herein incorporated by reference in its entirety). An aspect of the drug screening protocol can include a measurement of the effect of compounds onto synaptic function. Amyloid-beta (Aβ) is a toxic peptide that is thought to underlie subtle amnesic changes occurring at early stages of Alzheimer's disease. It impairs both memory and its electrophysiological surrogate, long-term potentiation (LTP). LTP can be examined because it is a type of synaptic plasticity thought to underlie learning and memory. RA010115 can rescue the Aβ-induced reduction of LTP, and other compounds can also be screened to identify those that can re-establish normal LTP. The compounds can be applied for 20 min. Controls can be performed on slices in the absence of Aβ, and mice treated with compound. Tau is another peptide that is involved in cell to cell communication, and impairs both memory and LTP in animal models of AD and other tauopathies. FIG. 26 is a graph showing that RA010115 rescues oligomeric Tau (oTau)- and oligomeric Aβ (o Aβ)-induced LTP deficits. LTP was impaired in hippocampal slices from WT mice perfused with oTau (50 nM) and oAβ (200 nM), whereas there was no impairment in slices treated with RA10115 or vehicle. LTP was restored in slices perfused with RA010115 and either oTau or oAβ. The horizontal solid bar represents oAβ and oTau perfusion while the horizontal dashed bar represents RA010115. The three arrows correspond to the theta-burst stimulation. […]

Q: `COc1cccc(OC)c1C(=O)Nc1ccc(Cl)c(C(F)(F)F)c1` [RA010115] was tested. Which “LTP in slices treated with compound alone” value (no oTau or oAβ) did it give?
A: no impairment

Q: And the “oTau- and oAβ-induced LTP deficits” value (slices perfused with compound and either oTau (50 nM) or oAβ (200 nM))?
A: restored; also recorded: rescues
